Structures can show the parent of a compound that is named as a salt.
These molecules were tested against T1, human calcium receptor (Homo sapiens, UniProt P41180) (assay: Calcium Receptor Inhibitor Assay). Details: not given.
T1 construct: expressed in transfected cells
T1 sequence (P41180 20-1078): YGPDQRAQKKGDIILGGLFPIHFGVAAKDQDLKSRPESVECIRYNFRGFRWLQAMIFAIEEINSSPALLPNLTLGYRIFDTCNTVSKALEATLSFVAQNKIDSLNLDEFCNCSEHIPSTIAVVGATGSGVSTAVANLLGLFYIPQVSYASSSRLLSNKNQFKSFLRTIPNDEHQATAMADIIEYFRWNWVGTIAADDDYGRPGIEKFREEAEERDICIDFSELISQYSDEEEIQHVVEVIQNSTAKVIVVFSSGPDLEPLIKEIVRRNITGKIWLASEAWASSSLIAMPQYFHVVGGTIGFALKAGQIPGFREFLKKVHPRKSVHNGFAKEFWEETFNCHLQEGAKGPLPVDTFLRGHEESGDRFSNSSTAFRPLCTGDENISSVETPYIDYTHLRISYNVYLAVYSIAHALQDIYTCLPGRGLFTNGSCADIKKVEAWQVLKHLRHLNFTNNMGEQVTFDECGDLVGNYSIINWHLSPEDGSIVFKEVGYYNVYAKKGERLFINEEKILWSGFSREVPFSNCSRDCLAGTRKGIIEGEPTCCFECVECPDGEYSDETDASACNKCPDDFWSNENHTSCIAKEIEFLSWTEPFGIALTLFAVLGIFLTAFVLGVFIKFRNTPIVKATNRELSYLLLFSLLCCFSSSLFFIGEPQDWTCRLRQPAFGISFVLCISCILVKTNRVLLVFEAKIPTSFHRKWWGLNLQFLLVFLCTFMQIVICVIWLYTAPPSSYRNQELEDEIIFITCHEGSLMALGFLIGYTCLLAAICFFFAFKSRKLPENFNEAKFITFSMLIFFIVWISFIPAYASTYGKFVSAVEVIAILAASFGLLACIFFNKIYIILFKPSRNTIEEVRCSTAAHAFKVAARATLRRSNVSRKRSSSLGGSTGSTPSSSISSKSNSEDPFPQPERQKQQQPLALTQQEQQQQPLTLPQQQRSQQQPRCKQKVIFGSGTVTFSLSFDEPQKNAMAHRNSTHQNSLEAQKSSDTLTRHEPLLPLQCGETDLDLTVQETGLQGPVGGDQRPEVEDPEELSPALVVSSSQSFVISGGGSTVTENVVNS
Assay type: cell-based
Protocol: This example illustrates the use of the Calcium Receptor Inhibitor Assay. […] Res. 10 Suppl. […] Intracellular Ca^2+ was measured using fluo-3, a fluorescent calcium indicator.
The procedure was as follows:
1. Cells were maintained in T-150 flasks in selection media (DMEM supplemented with 10% fetal bovine serum and 200 μg/mL hygromycin B), under 5% CO2:95% air at 37° C. and were grown up to 90% confluency.
2. The medium was decanted and the cell monolayer was washed twice with phosphate-buffered saline (PBS) kept at 37° C. After the second wash, 6 mL of 0.02% EDTA in PBS was added and incubated for 4 minutes at 37° C. Following the incubation, cells were dispersed by gentle agitation.
3. Cells from 2 or 3 flasks were pooled and pelleted (100×g). The cellular pellet was resuspended in […] of SPF-PCB+ and pelleted again by centrifugation. This washing was done twice.
SPF-PCB was made up and stored at 4° C. On the day of use, SPF-PCB was supplemented with 1 mg/mL of D-glucose and 1 mM CaCl2 and then split into two fractions. To one fraction, bovine serum albumin (BSA; fraction V, ICN) was added at 5 mg/mL (SPF-PCB+). This buffer was used for washing, loading and maintaining the cells. The BSA-free fraction was used for diluting the cells in the cuvette for measurements of fluorescence.
5. Following the incubation period, the cells were pelleted by centrifugation. The resulting pellet was washed with SPF-PCB+. After this washing, cells were resuspended in SPF-PCB+ at a density of 1–2×10^6 cells/mL.
6. For recording fluorescent signals, 300 μL of cell suspension were diluted in 1.2 mL of SPF buffer containing 1 mM CaCl2 and 1 mg/mL of D-glucose. Measurements of fluorescence were performed at 37° C. with constant stirring using a spectrofluorimeter. […] To calibrate fluorescence signals, digitonin (5 mg/mL in ethanol) was added to obtain Fmax, and the apparent Fmin was determined by adding Tris-EGTA (2.5 M Tris-Base, 0.3 M EGTA).
7. To determine the potential calcilytic activity of test compounds, cells were incubated with test compound (or vehicle as a control) for 90 seconds before increasing the concentration of extracellular Ca^2+ from 1 to 2 mM. Calcilytic compounds were detected by their ability to block, in a concentration-dependent manner, increases in the concentration of intracellular Ca^2+ elicited by extracellular Ca^2+.

Compound | IC50
COc1ccc(CC(C)(C)NCCc2ccccc2)cc1 [Compound 84, N-(2-Phenylethyl)-1,1-dimethyl-2-(4-methoxyphenyl)ethylamine] | > 50 µM
COc1ccc(CC(C)(C)NCC(O)COC2CCCCC2)cc1 (centres unmarked) [Compound 93, N-(2-hydroxy-3-cyclohexoxypropyl)-1,1-dimethyl-2-(4-methoxyphenyl)ethylamine] | < 10 µM

Same assay, conditions: HEK 293 4.0–7 cells stably expressing the human calcium receptor; fluo-3; read-out: IC50 for blocking increases of intracellular Ca2+ elicited by extracellular Ca2+

Compound | IC50
COc1ccc(CCC(C)(C)NCC(O)COc2ccccc2)cc1 (centres unmarked) [Compound 90, N-(2-Hydroxy-3-phenoxypropyl)-1,1-dimethyl-3-(4-methoxyphenyl)propylamine Hydrochloride] | < 50 µM
CC(C)(Cc1cccc2ccccc12)NCC(O)COc1ccccc1 (centres unmarked) [Compound 92, N-(2-hydroxy-3-phenoxypropyl)-1,1-dimethyl-2-(1-naphthyl)ethylamine] | > 50 µM
COc1ccc(CC(C)(C)NCC(O)COC23CC4CC(CC(C4)C2)C3)cc1 (centres unmarked) [Compound 96, N-[2-Hydroxy-3-(1-adamantanoxy)propyl]-1-1,1-dimethyl-2-(4-methoxyphenyl)ethyl amine] | < 1 µM
Cc1ccc(CC(C)(C)NCC(O)COc2ccccc2)cc1 (centres unmarked) [Compound 98, N-(2-Hydroxy-3-phenoxypropyl)-1,1-dimethyl-2-(4-methylphenyl)ethylamine Hydrochloride] | < 10 µM
COc1cccc(CC(C)(C)NCC(O)COc2ccccc2)c1 (centres unmarked) [Compound 99, N-(2-Hydroxy-3-phenoxypropyl)-1,1-dimethyl-2-(3-methoxyphenyl)ethylamine Hydrochloride] | > 50 µM
COc1ccc(CC(C)(C)NCC(C)(O)COc2ccccc2)cc1 (centres unmarked) [Compound 101, N-(2-Hydroxy-2-methyl-3-phenoxypropyl)-1,1-dimethyl-2-(4-methoxyphenyl)ethylamine Hydrochloride] | < 50 µM
CCOc1ccc(CC(C)(C)NCC(O)COc2ccccc2)cc1 (centres unmarked) [Compound 102, N-(2-hydroxy-3-phenoxypropyl)-1,1-dimethyl-2-(4-ethoxyphenyl)ethylamine] | > 50 µM
CC(C)(Cc1ccc(Cl)cc1)NCC(O)COc1ccccc1 (centres unmarked) [Compound 103, N-(2-Hydroxy-3-phenoxypropyl)-1,1-dimethyl-2-(4-chlorophenyl)ethylamine Hydrochloride] | < 10 µM
CC(C)(Cc1cccc(Cl)c1)NCC(O)COc1ccccc1 (centres unmarked) [Compound 104, N-(2-Hydroxy-3-phenoxypropyl)-1,1-dimethyl-2-(3-chlorophenyl)ethylamine Hydrochloride] | < 10 µM
COc1ccc(CC(C)(C)NC[C@@H](O)COc2cccc(Cl)c2C#N)cc1 [Compound 109, (R)—N-[2-Hydroxy-3-(3-chloro-2-cyanophenoxy)propyl]-1,1-dimethyl-2-(4-methoxyphenyl)-ethylamine Hydrochloride] | < 1 µM
CCc1ccc(CC(C)(C)NCC(O)COc2ccccc2)cc1 (centres unmarked) [Compound 110, N-(2-Hydroxy-3-phenoxypropyl)-1,1-dimethyl-2-(4-ethylphenyl)ethylamine Hydrochloride] | < 10 µM
CC(C)(Cc1ccc(OC(F)(F)F)cc1)NCC(O)COc1ccccc1 (centres unmarked) [Compound 111, N-(2-Hydroxy-3-phenoxypropyl)-1,1-dimethyl-2-(4-trifluoromethoxyphenyl)ethylamine Hydrochloride] | < 10 µM
CC(C)c1ccc(CC(C)(C)NCC(O)COc2ccccc2)cc1 (centres unmarked) [Compound 112, N-(2-Hydroxy-3-phenoxypropyl)-1,1-dimethyl-2-(4-isopropylphenyl)ethylamine Hydrochloride] | < 1 µM
CCC(C)(Cc1ccc(OC)cc1)NCC(O)COc1ccccc1 (centres unmarked) [Compound 113, N-(2-Hydroxy-3-phenoxypropyl)-1-ethyl-1-methyl-2-(4-methoxyphenyl)ethylamine Hydrochloride] | < 1 µM
CCC(CC)(Cc1ccc(OC)cc1)NCC(O)COc1ccccc1 (centres unmarked) [Compound 114, N-(2-Hydroxy-3-phenoxypropyl)-1,1-diethyl-2-(4-methoxyphenyl)ethylamine Hydrochloride] | < 10 µM

Source: patent US7202261B2, “Calcilytic compounds” (NPS Pharmaceuticals, Inc., priority 1996, dated 2007)
